Experimental data: patent US9738634B2, “Heterocyclic amide compound and herbicide” (SYNGENTA PARTICIPATIONS AG, priority 2013, dated 2017)

Legend:
Type in all cases: in vivo
[1] = test system: barnyard grass; assay: Test Example 1: weedkilling efficacy, preemergent weed treatment in the submerged state; A: barnyard grass; settings: treatment dosage 252 g/ha
In short: (§1)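 Emulsion diluted with water to the specified per-hectare dosage is applied onto flood water (4 cm) over alluvial soil on the sowing day, with barnyard grass, bulrush and pondweed seeded and rice (2.5-leaf) transplanted; plants grow at 25–30 °C and are rated at 3 weeks.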

[2] = test system: bulrush; assay: Test Example 1: weedkilling efficacy, preemergent weed treatment in the submerged state; B: bulrush; settings: treatment dosage 252 g/ha
In short: as §1

[3] = test system: oval-leafed pondweed; assay: Test Example 1: weedkilling efficacy, preemergent weed treatment in the submerged state; C: oval-leafed pondweed; settings: treatment dosage 252 g/ha
In short: as §1

[4] = test system: transplanted rice; assay: Test Example 1: preemergent weed treatment in the submerged state, effect on crop; a: transplanted rice; settings: treatment dosage 252 g/ha
In short: as §1

[5] = test system: barnyard grass; assay: Test Example 2: weedkilling efficacy, growth period weed treatment in the submerged state; A: barnyard grass; settings: treatment dosage 252 g/ha
In short: (§2)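 First, alluvial soil in pots is flooded to 4 cm and mixed seed is sown. Next, plants grow in a greenhouse at 25 to 30° C until the 1-2 leaf stage. Then diluted emulsion is applied onto the water surface at the given g/ha rate, and injury is assessed after 3 weeks.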

[6] = test system: bulrush; assay: Test Example 2: weedkilling efficacy, growth period weed treatment in the submerged state; B: bulrush; settings: treatment dosage 252 g/ha
In short: as §2

[7] = test system: oval-leafed pondweed; assay: Test Example 2: weedkilling efficacy, growth period weed treatment in the submerged state; C: oval-leafed pondweed; settings: treatment dosage 252 g/ha
In short: as §2

[8] = test system: crabgrass; assay: Test Example 3: weedkilling efficacy through soil treatment; D: crabgrass; settings: treatment dosage 315 g/ha
In short: (§3)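 Crop and weed responses were judged three weeks after a uniform surface spray of the water-diluted emulsion at the given g/ha rate. Seeds sat beneath about 1.5 cm of sterilized diluvial soil, and boxes stood in a greenhouse at 25 to 30° C.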

[9] = test system: green foxtail; assay: Test Example 3: weedkilling efficacy through soil treatment; E: green foxtail; settings: treatment dosage 315 g/ha
In short: as §3

[10] = test system: wild oat; assay: Test Example 3: weedkilling efficacy through soil treatment; G: wild oat; settings: treatment dosage 315 g/ha
In short: as §3

[11] = test system: black-grass; assay: Test Example 3: weedkilling efficacy through soil treatment; H: black-grass; settings: treatment dosage 315 g/ha
In short: as §3

[12] = test system: Italian ryegrass; assay: Test Example 3: weedkilling efficacy through soil treatment; I: Italian ryegrass; settings: treatment dosage 315 g/ha
In short: as §3

[13] = test system: Indian mallow; assay: Test Example 3: weedkilling efficacy through soil treatment; K: Indian mallow; settings: treatment dosage 315 g/ha
In short: as §3

[14] = test system: redroot pigweed; assay: Test Example 3: weedkilling efficacy through soil treatment; L: redroot pigweed; settings: treatment dosage 315 g/ha
In short: as §3

[15] = test system: fig-leafed goosefoot; assay: Test Example 3: weedkilling efficacy through soil treatment; M: fig-leafed goosefoot; settings: treatment dosage 315 g/ha
In short: as §3

[16] = test system: catchweed; assay: Test Example 3: weedkilling efficacy through soil treatment; O: catchweed; settings: treatment dosage 315 g/ha
In short: as §3

[17] = test system: corn; assay: Test Example 3: soil treatment, effect on crop; c: corn; settings: treatment dosage 315 g/ha
In short: as §3

[18] = test system: soybean; assay: Test Example 3: soil treatment, effect on crop; d: soybean; settings: treatment dosage 315 g/ha
In short: as §3

[19] = test system: wheat; assay: Test Example 3: soil treatment, effect on crop; e: wheat; settings: treatment dosage 315 g/ha
In short: as §3

[20] = test system: beet; assay: Test Example 3: soil treatment, effect on crop; f: beet; settings: treatment dosage 315 g/ha
In short: as §3

[21] = test system: crabgrass; assay: Test Example 4: weedkilling efficacy by foliar treatment; D: crabgrass; settings: treatment dosage 315 g/ha
In short: (§4)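 Seeds are spot-sown into sterilized diluvial soil and covered with about 1.5 cm of soil. After 14 days' greenhouse growth at 25 to 30° C, plants are sprayed on stems and leaves with diluted emulsion at the stated g/ha rate, then scored at 3 weeks.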

[22] = test system: green foxtail; assay: Test Example 4: weedkilling efficacy by foliar treatment; E: green foxtail; settings: treatment dosage 315 g/ha
In short: as §4

[23] = test system: wild oat; assay: Test Example 4: weedkilling efficacy by foliar treatment; G: wild oat; settings: treatment dosage 315 g/ha
Procedure: Testing of Weedkilling Efficacy by Foliar Treatment
Sterilized diluvial soil was introduced into 21 cm long, 13 cm wide, 7 cm deep plastic boxes, and seeds of crabgrass, green foxtail, barnyard grass, wild oat, black-grass, Italian ryegrass, common wind-grass, Indian mallow, redroot pigweed, fig-leafed goosefoot, chickweed, catchweed, birds-eye speedwell, corn, soybean, rice, wheat, beet and rapeseed were each spot-sown, and covered with about 1.5 cm of soil, then the plants were grown in a greenhouse at 25 to 30° C.
After they had grown for 14 days, emulsions of compounds of the present invention prepared according to compounding example 2 were diluted with water to give the specified dosages, and applied uniformly onto the stem and leaf parts with a small sprayer. 3 weeks after the pesticide treatment the effect on each type of plant was investigated on the basis of the assessment criteria of test example 1.
A: barnyard grass, B: bulrush, C: oval-leafed pondweed, D: crabgrass, E: green foxtail, F: barnyard grass, G: wild oat, H: black-grass, I: Italian ryegrass, J: common wind-grass, K: Indian mallow, L: redroot pigweed, M: fig-leafed goosefoot, N: chickweed, O: catchweed, p: birds-eye speedwell, a: transplanted rice, b: directly sown rice, c: corn, d: soybean, e: wheat, f: beet, g: rapeseed
Further, pesticide dosage (g/ha) indicates the concentration regulated such that treatment was with only the stated number of grams (g), when calculated per hectare (ha).

[24] = test system: black-grass; assay: Test Example 4: weedkilling efficacy by foliar treatment; H: black-grass; settings: treatment dosage 315 g/ha
In short: as §4

[25] = test system: Italian ryegrass; assay: Test Example 4: weedkilling efficacy by foliar treatment; I: Italian ryegrass; settings: treatment dosage 315 g/ha
In short: as §4

[26] = test system: Indian mallow; assay: Test Example 4: weedkilling efficacy by foliar treatment; K: Indian mallow; settings: treatment dosage 315 g/ha
In short: as §4

[27] = test system: redroot pigweed; assay: Test Example 4: weedkilling efficacy by foliar treatment; L: redroot pigweed; settings: treatment dosage 315 g/ha
In short: as §4

[28] = test system: fig-leafed goosefoot; assay: Test Example 4: weedkilling efficacy by foliar treatment; M: fig-leafed goosefoot; settings: treatment dosage 315 g/ha
In short: as §4

[29] = test system: chickweed; assay: Test Example 4: weedkilling efficacy by foliar treatment; N: chickweed; settings: treatment dosage 315 g/ha
In short: as §4

[30] = test system: catchweed; assay: Test Example 4: weedkilling efficacy by foliar treatment; O: catchweed; settings: treatment dosage 315 g/ha
In short: as §4

[31] = test system: directly sown rice; assay: Test Example 4: foliar treatment, effect on crop; b: directly sown rice; settings: treatment dosage 315 g/ha
In short: as §4

[32] = test system: corn; assay: Test Example 4: foliar treatment, effect on crop; c: corn; settings: treatment dosage 315 g/ha
In short: as §4

[33] = test system: soybean; assay: Test Example 4: foliar treatment, effect on crop; d: soybean; settings: treatment dosage 315 g/ha
In short: as §4

[34] = test system: wheat; assay: Test Example 4: foliar treatment, effect on crop; e: wheat; settings: treatment dosage 315 g/ha
In short: as §4

[35] = test system: beet; assay: Test Example 4: foliar treatment, effect on crop; f: beet; settings: treatment dosage 315 g/ha
In short: as §4

## CC1=C(c2ccccc2)C(=O)N(C(C)(C)C(=O)Nc2ccnc(C(F)(F)F)c2)CO1 [B-4-06]
[1]
  A (barnyard grass) weedkilling efficacy grade: 5 (weed kill ratio 90% or more, (practically complete withering))
[2]
  B (bulrush) weedkilling efficacy grade: 5 (weed kill ratio 90% or more, (practically complete withering))
[3]
  C (oval-leafed pondweed) weedkilling efficacy grade: 5 (weed kill ratio 90% or more, (practically complete withering))
[4]
  a (transplanted rice) effect on crop grade: 0 (weed kill ratio 5% or less (practically no effect))
[5]
  A (barnyard grass) weedkilling efficacy grade: 4 (weed kill ratio 70% or more, less than 90%)
[6]
  B (bulrush) weedkilling efficacy grade: 5 (weed kill ratio 90% or more, (practically complete withering))
[7]
  C (oval-leafed pondweed) weedkilling efficacy grade: 5 (weed kill ratio 90% or more, (practically complete withering))
[8]
  D (crabgrass) weedkilling efficacy grade: 5 (weed kill ratio 90% or more, (practically complete withering))
[9]
  E (green foxtail) weedkilling efficacy grade: 5 (weed kill ratio 90% or more, (practically complete withering))
[10]
  G (wild oat) weedkilling efficacy grade: 5 (weed kill ratio 90% or more, (practically complete withering))
[11]
  H (black-grass) weedkilling efficacy grade: 5 (weed kill ratio 90% or more, (practically complete withering))
[12]
  I (Italian ryegrass) weedkilling efficacy grade: 5 (weed kill ratio 90% or more, (practically complete withering))
[13]
  K (Indian mallow) weedkilling efficacy grade: 1 (weed kill ratio 5% or more, less than 20%)
[14]
  L (redroot pigweed) weedkilling efficacy grade: 3 (weed kill ratio 40% or more, less than 70%)
[15]
  M (fig-leafed goosefoot) weedkilling efficacy grade: 4 (weed kill ratio 70% or more, less than 90%)
[16]
  O (catchweed) weedkilling efficacy grade: 4 (weed kill ratio 70% or more, less than 90%)
[17]
  c (corn) effect on crop grade: 2 (weed kill ratio 20% or more, less than 40%)
[18]
  d (soybean) effect on crop grade: 0 (weed kill ratio 5% or less (practically no effect))
[19]
  e (wheat) effect on crop grade: 3 (weed kill ratio 40% or more, less than 70%)
[20]
  f (beet) effect on crop grade: 4 (weed kill ratio 70% or more, less than 90%)
[21]
  D (crabgrass) weedkilling efficacy grade: 5 (weed kill ratio 90% or more, (practically complete withering))
[22]
  E (green foxtail) weedkilling efficacy grade: 5 (weed kill ratio 90% or more, (practically complete withering))
[23]
  G (wild oat) weedkilling efficacy grade: 5 (weed kill ratio 90% or more, (practically complete withering))
[24]
  H (black-grass) weedkilling efficacy grade: 5 (weed kill ratio 90% or more, (practically complete withering))
[25]
  I (Italian ryegrass) weedkilling efficacy grade: 5 (weed kill ratio 90% or more, (practically complete withering))
[26]
  K (Indian mallow) weedkilling efficacy grade: 3 (weed kill ratio 40% or more, less than 70%)
[27]
  L (redroot pigweed) weedkilling efficacy grade: 4 (weed kill ratio 70% or more, less than 90%)
[28]
  M (fig-leafed goosefoot) weedkilling efficacy grade: 4 (weed kill ratio 70% or more, less than 90%)
[29]
  N (chickweed) weedkilling efficacy grade: 3 (weed kill ratio 40% or more, less than 70%)
[30]
  O (catchweed) weedkilling efficacy grade: 4 (weed kill ratio 70% or more, less than 90%)
[31]
  b (directly sown rice) effect on crop grade: 5 (weed kill ratio 90% or more, (practically complete withering))
[32]
  c (corn) effect on crop grade: 5 (weed kill ratio 90% or more, (practically complete withering))
[33]
  d (soybean) effect on crop grade: 4 (weed kill ratio 70% or more, less than 90%)
[34]
  e (wheat) effect on crop grade: 1 (weed kill ratio 5% or more, less than 20%)
[35]
  f (beet) effect on crop grade: 3 (weed kill ratio 40% or more, less than 70%)
